Assay results published in the supplement of paper PMC10307832.

Tests used:
Assay in all cases: relative viability (nuclei count vs DMSO), 5 days (fraction); higher = more cells survive
Selisistat = compound: C1CC(C2=C(C1)C3=C(N2)C=CC(=C3)Cl)C(=O)N [Selisistat]
How it was run: (§1)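 MetaXpress counted nuclei in 4× images of lung cancer cell lines that had been fixed, permeabilised and Hoechst-stained in one step. Before that, cells in 1536-well plates were kept overnight at 37 °C, pinned with five √10-spaced library-drug doses on vehicle-anchored plates, and cultured 5 days without medium change. Viability takes treated-well nuclei over vehicle-well nuclei and uses the median across plates. Plates were accepted only at control CV below 25% and at least one doubling.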

Serdemetan = compound: c1ccc2c(CCNc3ccc(Nc4ccncc4)cc3)c[nH]c2c1 [Serdemetan]
How it was run: as §1

Selisistat + Trametinib = compound: C1CC(C2=C(C1)C3=C(N2)C=CC(=C3)Cl)C(=O)N [Selisistat] + CC(=O)Nc1cccc(-n2c(=O)n(C3CC3)c(=O)c3c(Nc4ccc(I)cc4F)n(C)c(=O)c(C)c32)c1 [Trametinib] (partner 0.02 µM)
How it was run: (§2)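 Relative viability was taken as the ratio of nuclei in treated wells to nuclei in vehicle wells. Lung cancer cell lines in 1536-well plates received compounds by pin tool one day after seeding, either one drug alone or a fixed anchor-drug dose plus five library-drug doses (not always all listed) in √10 steps. Nuclei were counted on 4× images after 5 days of treatment, and values are medians of duplicate plates.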

Serdemetan + Navitoclax = compound: c1ccc2c(CCNc3ccc(Nc4ccncc4)cc3)c[nH]c2c1 [Serdemetan] + CC1(C)CCC(c2ccc(Cl)cc2)=C(CN2CCN(c3ccc(C(=O)NS(=O)(=O)c4ccc(N[C@H](CCN5CCOCC5)CSc5ccccc5)c(S(=O)(=O)C(F)(F)F)c4)cc3)CC2)C1 [Navitoclax] (partner 0.5 µM)
How it was run: as §2

| Cell Line | relative viability (Selisistat; 0.4 µM) | relative viability (Selisistat; 1.265 µM) | relative viability (Selisistat; 4 µM) | relative viability (Selisistat; 12.65 µM) | relative viability (Selisistat; 40 µM) | relative viability (Serdemetan; 0.04 µM) | relative viability (Serdemetan; 0.1265 µM) | relative viability (Serdemetan; 0.4 µM) | relative viability (Serdemetan; 1.265 µM) | relative viability (Serdemetan; 4 µM) | relative viability (Selisistat + Trametinib; first compound 0.4 µM) | relative viability (Selisistat + Trametinib; first compound 1.265 µM) | relative viability (Selisistat + Trametinib; first compound 4 µM) | relative viability (Selisistat + Trametinib; first compound 12.65 µM) | relative viability (Selisistat + Trametinib; first compound 40 µM) | relative viability (Serdemetan + Navitoclax; first compound 0.04 µM) | relative viability (Serdemetan + Navitoclax; first compound 0.1265 µM) | relative viability (Serdemetan + Navitoclax; first compound 0.4 µM) | relative viability (Serdemetan + Navitoclax; first compound 1.265 µM) | relative viability (Serdemetan + Navitoclax; first compound 4 µM) |
| --- | --- | --- | --- | --- | --- | --- | --- | --- | --- | --- | --- | --- | --- | --- | --- | --- | --- | --- | --- | --- |
| LXF-289 | 1.05 | 1.03 | 0.867 | 0.949 | 1.07 | 1.02 | 0.996 | 0.933 | 0.84 | 0.885 | 0.72 | 0.727 | 0.646 | 0.69 | 0.731 | 0.931 | 0.927 | 0.884 | 0.759 | 0.749 |
| NCI-H1650 | 0.823 | 0.844 | 0.829 | 0.905 | 0.911 | 0.916 | 0.892 | 0.788 | 0.759 | 0.688 | 0.564 | 0.572 | 0.531 | 0.577 | 0.465 | 1.02 | 1.19 | 1.19 | 1.18 | 0.722 |
| NCI-H2085 | 1.11 | 0.991 | 0.858 | 0.965 | 1.05 | 0.964 | 0.968 | 0.897 | 0.844 | 0.744 | 0.518 | 0.61 | 0.581 | 0.554 | 0.761 | 1.16 | 1.01 | 1.04 | 0.815 | 0.685 |
| NCI-H1793 | 0.968 | 0.846 |  | 0.956 | 0.942 | 1.03 | 0.873 | 0.562 | 0.471 | 0.572 | 0.38 | 0.431 |  | 0.438 | 0.381 | 0.337 | 0.408 | 0.39 | 0.349 | 0.263 |
| LC-2-ad | 1.05 | 0.762 | 0.794 | 0.926 | 1.01 | 1 | 0.962 | 0.911 | 0.962 | 0.872 | 0.973 | 0.96 | 0.898 | 0.662 | 0.95 | 0.5 | 0.418 | 0.427 |  | 0.293 |
| COR-L 105 | 0.904 | 0.895 | 0.675 | 0.855 | 0.877 | 0.971 | 0.875 | 0.734 | 0.815 | 0.89 | 0.45 | 0.421 | 0.421 | 0.442 | 0.512 | 0.708 | 0.871 | 0.596 | 0.771 | 0.722 |
| NCI-H1355 | 1.02 | 0.987 | 0.832 | 0.97 | 1.03 | 0.99 | 1.05 | 0.907 | 0.936 | 0.918 | 0.422 | 0.462 | 0.422 | 0.438 | 0.43 | 1.01 | 0.863 | 0.944 | 0.915 | 0.78 |
| H3255 | 0.984 | 0.943 | 0.978 | 0.948 | 1.03 | 0.968 | 0.944 | 0.987 | 0.787 | 0.896 | 0.664 | 0.526 | 0.584 | 0.636 | 0.637 | 0.437 | 0.538 | 0.485 | 0.362 | 0.404 |
| NCI-H1993 | 0.911 | 0.898 |  | 1.01 | 1.04 | 0.977 | 0.995 | 0.699 | 0.831 | 0.89 | 0.519 | 0.496 |  | 0.518 | 0.573 | 0.952 | 0.92 | 0.78 |  | 0.875 |
| NCI-H1734 | 1.02 | 0.942 | 0.921 | 1.08 | 1.03 | 0.854 | 0.455 | 0.821 | 0.171 | 0.263 | 0.714 | 0.674 | 0.656 | 0.694 | 0.718 | 0.68 |  | 0.202 | 0.108 | 0.188 |
| HOP-62 | 0.997 | 0.987 | 0.861 | 0.928 | 1.07 | 1.03 | 0.999 | 1.01 | 0.873 | 0.907 | 0.431 | 0.394 | 0.362 | 0.401 | 0.408 | 1.08 | 0.942 | 1.05 | 0.944 | 0.962 |
| LOU-NH91 | 1.05 | 0.938 | 0.884 | 0.966 | 0.973 | 1.02 | 0.946 | 0.694 | 0.783 | 0.999 | 0.805 | 0.799 | 0.767 | 0.798 | 0.776 | 0.696 | 0.74 |  | 0.534 | 0.581 |
| ChaGo-K-1 | 1.02 | 0.942 | 0.8 | 0.866 | 0.97 | 0.964 | 0.95 | 0.873 | 0.624 | 0.529 | 0.895 | 0.886 | 0.881 | 0.895 | 0.888 |  | 1.15 | 0.925 | 0.681 | 0.899 |
| NCI-H2228 | 0.9 | 1.12 | 0.966 | 1.05 | 1.11 | 0.974 | 0.98 | 0.945 | 0.342 | 0.336 | 0.666 | 0.362 | 0.564 | 0.537 | 0.372 | 0.878 | 0.782 | 0.86 | 0.34 | 0.199 |
| PC-14 | 1.02 | 0.957 | 0.891 | 0.954 | 1.09 | 0.966 | 0.972 | 0.689 | 0.907 | 0.728 | 0.723 | 0.655 | 0.823 | 0.825 | 0.671 | 0.977 | 0.974 | 0.954 | 0.923 | 0.697 |
| NCI-H1437 | 0.945 | 0.974 | 0.805 | 0.933 | 0.855 | 0.905 | 0.994 | 0.98 | 0.928 | 0.799 | 0.558 | 0.485 | 0.488 | 0.5 | 0.477 | 1.06 | 1.01 | 0.99 | 0.98 | 0.754 |
